Article PMC2698131 (Journal of biomolecular screening, 2009)
Read-outs that look alike come from different tables or passages of the source.

Assays:
[1] = target: T1, LARG-stimulated RhoA nucleotide binding (Homo sapiens, UniProt Q9NZN5); type: biochemical; details: 20 minutes; for Hill Slope [TR-GTPγS]: BODIPY-TR-GTPγS fluorescence polarization dose-response; for IC50: BODIPY-TR-GTPγS 500 nM, LARG 100 nM, RhoA (C189S) 2 μM
T1 sequence (Q9NZN5 765-1138): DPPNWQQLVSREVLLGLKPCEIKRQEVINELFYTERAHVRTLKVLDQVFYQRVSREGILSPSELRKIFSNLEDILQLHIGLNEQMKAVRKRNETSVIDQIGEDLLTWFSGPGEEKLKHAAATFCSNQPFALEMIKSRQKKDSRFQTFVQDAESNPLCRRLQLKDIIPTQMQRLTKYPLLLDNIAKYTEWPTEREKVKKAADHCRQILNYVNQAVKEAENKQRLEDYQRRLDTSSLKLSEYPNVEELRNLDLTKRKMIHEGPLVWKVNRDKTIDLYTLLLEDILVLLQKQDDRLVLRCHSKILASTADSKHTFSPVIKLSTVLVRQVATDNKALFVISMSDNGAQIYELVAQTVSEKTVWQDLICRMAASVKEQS

[2] = target: T2, LARG-stimulated RhoA [35S] GTPγS binding (Homo sapiens, UniProt Q9NZN5); assay: LARG-stimulated RhoA [35S] GTPγS guanine nucleotide binding assay; type: biochemical; details: LARG 2 nM, RhoA (C189S) 500 nM, 25 minute time point
T2 sequence (Q9NZN5 765-1138): T1 sequence (Q9NZN5 765-1138)

| Structure (SMILES) | Hill Slope [TR-GTPγS] [1] | IC50 ([1]; IC50 (μM) [TR-GTPγS]) | IC50 ([1]; read-out: IC50 (μM) [TR-GTPγS]) | Hill Slope [GTPγS35] [2] | IC50 ([2]; read-out: IC50 (μM) [GTPγS35]) | IC50 ([2]; IC50 (μM) [GTPγS35]) |
| --- | --- | --- | --- | --- | --- | --- |
| Nc1ccc(O)c(-c2nc3cc(N)ccc3s2)c1 [CCG-5849, 4-amino-2-(5-amino-1,3-benzothiazol-2-yl)phenol] | -1.6 | 10.7 µM |  |  |  |  |
| O=c1oc2cc(O)ccc2cc1-c1csc(-c2ccc(-c3ccccc3)cc2)n1 [CCG-7167] | -1.8 |  | 65.1 µM | -2.2 | 4.2 µM |  |
| N=C1S/C(=C\c2ccc(-c3ccccc3[N+](=O)[O-])o2)C(=O)N1c1ccc2c(c1)OCO2 [CCG-13528, (5Z)-3-(2H-1,3-benzodioxol-5-yl)-2-imino-5-{[5-(2-nitrophenyl)furan-2-yl]methylidene}-1,3-thiazolidin-4-one] | -3.4 | 39.8 µM |  | -1.8 |  | 4.6 µM |
| Cc1cccc(NCC(=O)N/N=C\c2c(Br)cc(Br)c(O)c2Br)c1 [CCG-14113, (N′Z)-2-[(3-methylphenyl)amino]-N′-[(2,4,6-tribromo-3-hydroxyphenyl)methylidene]acetohydrazide] | -1.0 | 32.2 µM |  | -7.1 |  | 32.8 µM |
| O=C1NC(=S)NC(=O)C1=Cc1ccc(-c2ccc(S(=O)(=O)Nc3nccs3)cc2)o1 [CCG-14631, 4-{5-[(4,6-dioxo-2-sulfanylidene-1,3-diazinan-5-ylidene)methyl]furan-2-yl}-N-(1,3-thiazol-2-yl)benzene-1-sulfonamide] | -0.7 | 3.1 µM |  | -1.1 |  | 7 µM |
